Reference: PMC12316308, “Interactions of substrates and phosphinyl containing inhibitors with bacterial and human zinc proteases” (PLOS One, 2025)
Where two headings read alike, the source gives them in different places. Where a SMILES comes first, the peptide text is derived from it. [ ]: non-standard residue; d: D form. The star is where a group is joined. Dnp = O=[N+]([O-])c1ccc(*)c([N+](=O)[O-])c1; Mca = COc1ccc2c(CC(=O)*)cc(=O)oc2c1; Dap = NC[C@H](N)C(=O)O

What was measured:
MMP-9(A) = target: T1, MMP-9(A) (Homo sapiens, UniProt P14780); set-up: method as in PMID 33757387; conditions: 1% DMSO; cited from earlier work
T1 construct: made in house; host or cells: Sf9 and High Five insect cells

MMP-14 = target: T2, MMP-14 (Homo sapiens, UniProt P50281); set-up: method as in PMID 33757387; conditions: 1% DMSO; cited from earlier work
T2 construct: human MT1-MMP/MMP-14 (catalytic domain); purchased Calbiochem (San Diego, CA, USA)

[1] = target: T3, human MT1-MMP/MMP-14 (catalytic domain) (Homo sapiens, UniProt P50281); assay: Enzyme inhibition kinetics, fluorogenic substrate ES001; format: biochemical; conditions: for inhibitory effect on enzymatic activity: in words; for Ki: read-out: Ki ± s.d. (converted)
T3 construct: human MT1-MMP/MMP-14 (catalytic domain); purchased Calbiochem (San Diego, CA, USA)
Protocol: (§1) Determination of reaction velocities. The substrate ES001 was used for APMA activated MMP-9 (MMP-9(A)), Mag-Trypsin activated MMP-9 (MMP-9(MT)) and MMP-14, while the substrate ES005 was used for ALN, PLN and TLN. The reaction velocities/initial rates (v) were determined at 37°C, at an excitation wavelength of 320 nm and an emission wavelength of 405 nm with a slit width of 10 nm using either a Perkin Elmer LS 50 Luminescence spectrometer and the FL WinLab Software Package (Perkin Elmer) or a Clario Star micro plate reader (CLARIOstar® BMG LABTECH).
(§2) The phosphinic compounds were dissolved in 100% DMSO to a final concentration of 10 mM. In all assays, a fixed substrate concentration of 4.0 µM was used in a total volume of 100 µL 0.1 M Hepes pH 7.5, 10 mM CaCl2, 0.005% Brij-35 and 1.0% DMSO. Fixed enzyme concentrations were as follows; 0.05 nM MMP-9(A), 0.05 nM MMP-9(MT), 1.0 nM MMP-14, 1.4 nM ALN, 0.5 nM PLN and 0.21 nM TLN. Time dependent inhibitory experiments, with and without 100 μM of phosphinic compounds, were performed as follows: Compounds were either pre-incubated with proteases for 15 and 30 minutes at room temperature before initiating the enzymatic reaction by adding the substrate, or not pre-incubated, meaning the reaction was initiated by adding the protease to the mixture of substrate and compound. Control tests without the compound present were performed under the same conditions. Reactions were monitored for 30 minutes at 37°C.
(§3) Determination of IC50 and Ki values. […] A fixed substrate concentration and the same enzyme and buffer conditions as described above were used. Enzymes, with or without inhibitors, were either pre-incubated for 30 minutes at room temperature or not pre-incubated, and initial rate assays were performed as described above. Assays were performed using a Clario Star microplate reader. The IC50 values with corresponding s.d. were calculated with GraphPad Prism 5 using equation 1 or 2, depending on the concentration range of the phosphinic compounds.
(§4) Equation 3 describe the relationship between IC50 and Ki values for substrate competitive inhibitors, considering the fixed substrate concentration and the enzyme’s Km value for the substrate: […]

[2] = target: T4, APMA activated MMP-9 (MMP-9(A)) (Homo sapiens, UniProt P14780); assay: as above; format: biochemical; conditions: for inhibitory effect on enzymatic activity: 100 μM compound, in words; for Ki: read-out: Ki ± s.d. (converted)
T4 construct: made in house; host or cells: Sf9 and High Five insect cells
Protocol: (§5) The expression of recombinant full length proMMP-9 (rpMMP-9) in Sf9 and High Five insect cells and the purification were performed as previously described. The amount of proMMP-9 was estimated spectrophotometrically at 280 nm using ε280nm = […] [46] for the full length enzyme. Activation of the recombinant proMMP-9 was performed with APMA (auto-activation) and Mag-Trypsin as previously described, while the amount of active MMP-9 was determined by active site titration using galardin, also described previously.
as §1, §2, §3, §4

[3] = target: T5, Mag-Trypsin activated MMP-9 (MMP-9(MT)) (Homo sapiens, UniProt P14780); assay: as above; format: biochemical; conditions: for inhibitory effect on enzymatic activity: 100 μM compound, in words; for Ki: read-out: Ki ± s.d. (converted)
T5 construct: made in house; host or cells: Sf9 and High Five insect cells
Protocol: as §5, §1, §2, §3, §4

aureolysin (ALN) = target: T6, aureolysin (ALN) (Staphylococcus aureus, UniProt P81177); assay: Enzyme inhibition kinetics, fluorogenic substrate ES005; format: biochemical; conditions: for inhibitory effect on enzymatic activity: 100 μM compound, in words
T6 construct: purchased BioCentrum Ltd (Kraków, Poland)
Protocol: as §1, §2, §3, §4

pseudolysin (PLN, LasB) = target: T7, pseudolysin (PLN, LasB) (Pseudomonas aeruginosa, UniProt P14756); assay: as above; format: biochemical; conditions: for inhibitory effect on enzymatic activity: 100 μM compound, in words
T7 construct: purchased Calbiochem (San Diego, CA, USA)
Protocol: as §1, §2, §3, §4

thermolysin (TLN) [4] = target: T8, thermolysin (TLN) (Bacillus thermoproteolyticus, UniProt P00800); assay: as above; format: biochemical; conditions: for inhibitory effect on enzymatic activity: 100 μM compound, in words; for Ki: read-out: Ki ± s.d.
T8 construct: purchased Calbiochem (San Diego, CA, USA)
Protocol: as §1, §2, §3, §4

thermolysin (TLN) [5] = target: T8, thermolysin (TLN); assay: MALDI-TOF MS analysis of ES005 cleavage; format: biochemical; conditions: One μM galardin, 100 nM TLN
Protocol: MALDI-TOF MS spectra were recorded for samples containing different enzyme and substrate concentrations at various time points using an Autoflex Speed instrument (Bruker Daltonik GmbH, Leipzig, Germany) equipped with a 355-nm nitrogen laser for desorption and ionization. The ionization matrix, HCCA, was dissolved to 10 mg/mL in a standard solvent (50% MeCN, 47.5% MQ-water, and 2.5% TFA) by vigorous vortexing. Prior to the MALDI run, a main buffer (0.1 M Hepes, pH 7.5, 10 mM CaCl2) was used to dilute TLN to stock concentrations of 1000, 100 and 50 nM, ES005–500 µM, and galardin to 10 µM. All stocks solutions were kept on ice. For the 0 min incubation, 1 µL TLN and 1 µL galardin were preincubated at 37°C in 8 µL of the main buffer for 10 min before adding 1 µL of ES005. For all other time points, 1 µL of ES005 was added to tubes containing 8 µL buffer and 1 µL of TLN at different concentrations, followed by incubation at 37°C. At each timepoint (0, 1, 3, 5, 10, 20, 30, 60, 120 min), 1 µL of galardin was added to stop enzyme activity. After the final incubation, 1 µL aliquots from each timepoint were mixed with an equal volume of HCCA and spotted onto a MALDI plate. […] The resulting mass spectra were analysed using flexAnalysis software (v3.3, Bruker).

T6 sequence (P81177 209-509): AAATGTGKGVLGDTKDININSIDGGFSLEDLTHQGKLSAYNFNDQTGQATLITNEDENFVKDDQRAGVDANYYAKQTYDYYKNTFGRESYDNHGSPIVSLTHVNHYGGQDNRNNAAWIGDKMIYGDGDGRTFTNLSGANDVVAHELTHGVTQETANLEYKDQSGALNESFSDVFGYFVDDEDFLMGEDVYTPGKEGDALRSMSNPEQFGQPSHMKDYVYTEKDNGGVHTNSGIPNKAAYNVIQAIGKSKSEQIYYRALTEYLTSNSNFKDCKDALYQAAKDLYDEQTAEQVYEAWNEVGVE
T4 sequence (P14780 107-707 limits assumed): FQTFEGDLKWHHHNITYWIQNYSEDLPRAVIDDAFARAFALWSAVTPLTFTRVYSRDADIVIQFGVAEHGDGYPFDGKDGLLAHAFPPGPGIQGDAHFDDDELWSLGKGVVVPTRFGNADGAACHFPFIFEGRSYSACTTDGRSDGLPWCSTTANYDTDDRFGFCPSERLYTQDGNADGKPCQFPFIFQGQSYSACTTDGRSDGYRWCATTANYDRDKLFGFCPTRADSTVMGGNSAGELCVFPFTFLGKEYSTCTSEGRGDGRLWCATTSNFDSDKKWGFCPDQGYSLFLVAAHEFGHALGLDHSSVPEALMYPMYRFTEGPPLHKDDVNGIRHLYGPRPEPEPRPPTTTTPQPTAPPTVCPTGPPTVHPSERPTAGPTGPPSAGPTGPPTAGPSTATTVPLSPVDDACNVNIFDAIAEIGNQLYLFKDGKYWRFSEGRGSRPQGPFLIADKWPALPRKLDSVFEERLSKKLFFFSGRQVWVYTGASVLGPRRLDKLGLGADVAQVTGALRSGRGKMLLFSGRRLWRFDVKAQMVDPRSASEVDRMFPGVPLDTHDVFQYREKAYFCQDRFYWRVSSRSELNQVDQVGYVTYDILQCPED
T5 sequence (P14780 107-707 limits assumed): as above
T8 sequence (P00800 233-548): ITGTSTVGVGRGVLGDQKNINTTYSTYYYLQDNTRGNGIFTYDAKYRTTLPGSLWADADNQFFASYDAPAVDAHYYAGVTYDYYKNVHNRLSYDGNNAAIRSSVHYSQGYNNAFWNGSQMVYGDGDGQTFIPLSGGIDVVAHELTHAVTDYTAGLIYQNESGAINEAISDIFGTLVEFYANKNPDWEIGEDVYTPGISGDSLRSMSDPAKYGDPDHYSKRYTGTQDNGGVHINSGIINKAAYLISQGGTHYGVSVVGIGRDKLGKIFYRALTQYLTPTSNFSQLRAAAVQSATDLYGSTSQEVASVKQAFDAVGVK
T7 sequence (P14756 198-498): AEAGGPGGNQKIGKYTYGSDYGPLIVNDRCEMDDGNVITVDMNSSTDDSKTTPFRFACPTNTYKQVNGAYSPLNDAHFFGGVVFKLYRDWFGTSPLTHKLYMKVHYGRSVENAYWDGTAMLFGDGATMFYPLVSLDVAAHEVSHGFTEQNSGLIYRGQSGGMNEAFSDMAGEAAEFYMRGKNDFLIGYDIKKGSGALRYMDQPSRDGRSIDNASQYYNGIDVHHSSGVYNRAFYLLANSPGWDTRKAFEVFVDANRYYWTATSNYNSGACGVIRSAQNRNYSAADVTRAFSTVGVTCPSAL
T1 sequence (P14780 107-707 limits assumed): as the sequence (P14780 107-707 limits assumed) above

COc1ccc2c(CC(=O)N3CCC[C@H]3C(=O)N[C@@H](CC(C)C)C(=O)NCC(=O)N[C@@H](CC(C)C)C(=O)N[C@@H](CNc3ccc([N+](=O)[O-])cc3[N+](=O)[O-])C(=O)N[C@@H](C)C(=O)N[C@@H](CCCNC(=N)N)C(N)=O)cc(=O)oc2c1 [ES001, Mca-Pro-Leu-Gly-Leu-Dpa-Ala-Arg-NH2] (Mca-PLGL[Dap](Dnp)AR-NH2)
Km (MMP-9(A)): 4 ± 1 µM | Km (MMP-14): 4.9 ± 0.4 µM

CC(=O)NC(CC(C)C)C(=O)CC(C)P(=O)(O)CC(Cc1ccccc1)C(=O)O (stereo not shown) [H-3]
inhibitory effect on enzymatic activity ([1]; MMP-14, 100 μM compound): weak or no inhibition | pre-incubation time after which inhibition stabilizes (slow binding) ([1]; MMP-14, 100 μM compound, pre-incubation at room temperature): 15 min | Ki ([1]; MMP-14, substrate ES001 4.0 µM, 0.1 M Hepes pH 7.5, 37°C, 1.0% DMSO, Ki from IC50 (Eqn. 3)): ≥ 100 µM | inhibitory effect on enzymatic activity ([2]; MMP-9(A)): weak or no inhibition | Ki ([2]; MMP-9(A), substrate ES001 4.0 µM, 0.1 M Hepes pH 7.5, 37°C, 1.0% DMSO, Ki from IC50 (Eqn. 3)): ≥ 100 µM | inhibitory effect on enzymatic activity ([3]; MMP-9(MT)): weak or no inhibition | Ki ([3]; MMP-9(MT), substrate ES001 4.0 µM, 0.1 M Hepes pH 7.5, 37°C, 1.0% DMSO, Ki from IC50 (Eqn. 3)): ≥ 100 µM | inhibitory effect on enzymatic activity (aureolysin (ALN); ALN): weak or no inhibition | Ki (aureolysin (ALN); read-out: Ki ± s.d., ALN, substrate ES005 4.0 µM, 0.1 M Hepes pH 7.5, 37°C, 1.0% DMSO, Ki from IC50 (Eqn. 3)): ≥ 100 µM | inhibitory effect on enzymatic activity (pseudolysin (PLN, LasB); PLN): weak or no inhibition | Ki (pseudolysin (PLN, LasB); read-out: Ki ± s.d., PLN, substrate ES005 4.0 µM, 0.1 M Hepes pH 7.5, 37°C, 1.0% DMSO, Ki from IC50 (Eqn. 3)): ≥ 100 µM | inhibitory effect on enzymatic activity (thermolysin (TLN) [4]; TLN): weak or no inhibition | Ki (thermolysin (TLN) [4]; TLN, substrate ES005 4.0 µM, 0.1 M Hepes pH 7.5, 37°C, 1.0% DMSO, Ki from IC50 (Eqn. 3)): ≥ 100 µM

CC(NC(=O)OCc1ccccc1)P(=O)(O)CC(Cc1ccccc1)C(=O)O (stereo not shown) [H-4]
inhibitory effect on enzymatic activity ([1]; MMP-14, 100 μM compound): weak or no inhibition | Ki [1]: ≥ 100 µM | inhibitory effect on enzymatic activity ([2]; MMP-9(A)): weak or no inhibition | Ki [2]: ≥ 100 µM | inhibitory effect on enzymatic activity ([3]; MMP-9(MT)): weak or no inhibition | Ki [3]: ≥ 100 µM | Ki (aureolysin (ALN)): ≥ 100 µM | inhibitory effect on enzymatic activity (aureolysin (ALN); ALN): weak or no inhibition | Ki (pseudolysin (PLN, LasB)): ≥ 100 µM | inhibitory effect on enzymatic activity (pseudolysin (PLN, LasB); PLN): weak or no inhibition | inhibitory effect on enzymatic activity (thermolysin (TLN) [4]; TLN): weak or no inhibition | Ki (thermolysin (TLN) [4]): ≥ 100 µM

CCOC(=O)C(CO)CP(=O)(O)C(Cc1ccccc1)NC(=O)OCc1ccccc1 (stereo not shown) [H-5]
inhibitory effect on enzymatic activity ([1]; MMP-14, 100 μM compound): weak or no inhibition | Ki [1]: ≥ 100 µM | inhibitory effect on enzymatic activity ([2]; MMP-9(A)): weak or no inhibition | Ki [2]: ≥ 100 µM | inhibitory effect on enzymatic activity ([3]; MMP-9(MT)): weak or no inhibition | Ki [3]: ≥ 100 µM | Ki (aureolysin (ALN)): ≥ 100 µM | inhibitory effect on enzymatic activity (aureolysin (ALN); ALN): weak or no inhibition | Ki (pseudolysin (PLN, LasB)): ≥ 100 µM | inhibitory effect on enzymatic activity (pseudolysin (PLN, LasB); PLN): weak or no inhibition | inhibitory effect on enzymatic activity (thermolysin (TLN) [4]; TLN): weak or no inhibition | Ki (thermolysin (TLN) [4]): ≥ 100 µM

CNC(=O)[C@H](Cc1c[nH]c2ccccc12)NC(=O)[C@@H](CC(=O)NO)CC(C)C [galardin]
inhibition of TLN (stopping of substrate cleavage) (thermolysin (TLN) [5]): not sufficient to completely inhibit
